Earlier results in patent US11439626B2 (Icahn School of Medicine at Mount Sinai, priority 2019, dated 2022).
Read-outs that look alike come from different tables or passages of the source.

Key:
[1] = system: patients with traumatic spinal cord injuries; details: cervical injuries, 90 days post-injury
[2] = not given; remark: listed apart in the source
[3] = for % Abs: 100 mg dose

## Nc1nc2ccc(OC(F)(F)F)cc2s1 [riluzole, 2-Amino-6-(trifluoromethoxy)benzothiazole]
[1]
  motor outcomes: improved motor outcomes
human, in vivo
  dose recovered in the urine: 90%
  dose recovered in the urine as glucuronides: 85%
  dose recovered in the urine as unchanged riluzole: 2%
  fecal excretion of administered dose: 5%
Repeated twice daily dosing
  accumulation: approximately 2 fold
[2]; 50 mg twice daily, non-smoking males, predicted profile (Bruno et al.)
  trough concentrations: ~0.03 µg/mL
[2]; error model parameter (SIGMA)
  Proportional error: 0.0697
[2]; variability parameter (ETA)
  V/F Inter-occasion variability: 0.111
[3]; 100 mg BID treatment arm, reported by Le Liboux et al.
  Cmin: ~0.04 µg/mL
[3]; Fasted (observed)
  % Abs: 100%
[3]; Fed (observed)
  % Abs: 80%
